Reference: US10745361B2, “Piperazine derivatives having multimodal activity against pain” (ESTEVE PHARMACEUTICALS, S.A., priority 2013, dated 2020)
pKi: −log10 of the molar value.

These compounds were tested against human σ1 receptor and human μ-opioid receptor (assay: Human σ1 receptor radioligand assay and human μ-opioid receptor radioligand assay (μ and σ1 dual binding)). Details: one class for both Ki: σ1 ([3H](+)-pentazocine, transfected HEK-293 membranes) and μ-opioid ([3H]-DAMGO, transfected CHO-K1 membranes).
Parameters: key to μ and σ1 dual binding: +: Both Ki-μ and Ki-σ1>=500 nM; ++: One K, <500 nM while the other K, is >=500 nM; +++: Both Ki-μ and Ki-σ1<500 nM; ++++: Both Ki-μ and Ki-σ1<100 nM
Description: Human σ1 Receptor Radioligand Assay
To investigate binding properties of σ1 receptor ligands to human σ1 receptor, transfected HEK-293 membranes and [^3H](+)-pentazocine (Perkin Elmer, NET-1056), as the radioligand, were used. The assay was carried out with 7 μg of membrane suspension, 5 nM of [^3H](+)-pentazocine in either absence or presence of either buffer or 10 μM Haloperidol for total and non-specific binding, respectively. Binding buffer contained Tris-HCl 50 mM at pH 8. Plates were incubated at 37° C. for 120 minutes. After the incubation period, the reaction mix was then transferred to MultiScreen HTS, FC plates (Millipore), filtered and plates were washed 3 times with ice-cold 10 mM Tris-HCL (pH7.4). Filters were dried and counted at approximately 40% efficiency in a MicroBeta scintillation counter (Perkin-Elmer) using EcoScint liquid scintillation cocktail
Human μ-Opioid Receptor Radioligand Assay
To investigate binding properties of p-opioid receptor ligands to human p-opioid receptor, transfected CHO-K1 cell membranes and [^3H]-DAMGO (Perkin Elmer, ES-542-C), as the radioligand, were used. The assay was carried out with 20 μg of membrane suspension, 1 nM of [^3H]-DAMGO in either absence or presence of either buffer or 10 μM Naloxone for total and non-specific binding, respectively. Binding buffer contained Tris-HCl 50 mM, MgCl2 5 mM at pH 7.4. Plates were incubated at 27° C. for 60 minutes. After the incubation period, the reaction mix was then transferred to MultiScreen HTS, FC plates (Millipore), filtered and plates were washed 3 times with ice-cold 10 mM Tris-HCL (pH 7.4). Filters were dried and counted at approximately 40% efficiency in a MicroBeta scintillation counter (Perkin-Elmer) using
EcoScint liquid scintillation cocktail.
The following scale as been adopted for representing the binding to the σ1 receptor and the μ-opiod receptor expressed as Ki: • + Both Ki-μ and Ki-σ1>=500 nM • ++ One K, <500 nM while the other K, is >=500 nM • +++ Both Ki-μ and Ki-σ1<500 nM • ++++ Both Ki-μ and Ki-σ1<100 nM

Q: With `CC(C)S(=O)(=O)Nc1cccc(N2CCN(Cc3cn(-c4ccccc4)nn3)CC2)c1` [Example 1, N-(3-(4-((1-phenyl-1H-1,2,3-triazol-4-yl)methyl)piperazin-1-yl)phenyl)propane-2-sulfonamide] as the compound, how does the pKi read?
A: > 7.00

Q: How did the “μ and σ1 dual binding” value turn out when `CC(C)S(=O)(=O)Nc1cccc(N2CCN(Cc3cn(-c4cncc(Cl)c4)nn3)CC2)n1` [Example 2, N-(6-(4-((1-(5-chloropyridin-3-yl)-1H-1,2,3-triazol-4-yl)methyl)piperazin-1-yl)pyridin-2-yl)propane-2-sulfonamide] was run?
A: ++

Q: How did the “μ and σ1 dual binding” value turn out when `CS(=O)(=O)Nc1cccc(N2CCN(Cc3cn(Cc4ccccc4)nn3)CC2)c1` [Example 3, N-(3-(4-((1-benzyl-1H-1,2,3-triazol-4-yl)methyl)piperazin-1-yl)phenyl)methanesulfonamide] was run?
A: ++

Q: How did the pKi turn out when `CS(=O)(=O)Nc1cccc(N2CCN(Cc3cn(-c4ccccc4)nn3)CC2)c1` [Example 4, N-(3-(4-((1-phenyl-1H-1,2,3-triazol-4-yl)methyl)piperazin-1-yl)phenyl)methanesulfonamide] was run?
A: > 6.30

Q: Which “μ and σ1 dual binding” value does the source give for `Oc1cccc(N2CCN(Cc3cn(-c4ccccc4)nn3)CC2)c1` [Example 5, 3-(4-((1-phenyl-1H-1,2,3-triazol-4-yl)methyl)piperazin-1-yl)phenol] here?
A: ++

Q: For `Oc1cccc(N2CCN(Cc3cn(Cc4ccccc4)nn3)CC2)c1` [Example 6, 3-(4-((1-benzyl-1H-1,2,3-triazol-4-yl)methyl)piperazin-1-yl)phenol], which “μ and σ1 dual binding” value is on record?
A: ++

Q: For `Oc1cccc(N2CCN(Cc3cn(-c4ccccn4)nn3)CC2)c1` [Example 7, 3-(4-((1-(pyridin-2-yl)-1H-1,2,3-triazol-4-yl)methyl)piperazin-1-yl)phenol], which “μ and σ1 dual binding” value is on record?
A: ++

Q: `CS(=O)(=O)Nc1cccc(N2CCN(Cc3cn(-c4ccc(C(F)(F)F)nc4)nn3)CC2)c1` [Example 8, N-(3-(4-((1-(6-(trifluoromethyl)pyridin-3-yl)-1H-1,2,3-triazol-4-yl)methyl)piperazin-1-yl)phenyl)methanesulfonamide] was tested. Which pKi did it give?
A: ≤ 6.30

Q: `CC(C)S(=O)(=O)Nc1cccc(N2CCN(Cc3cn(-c4ccccc4F)nn3)CC2)c1` [Example 9, N-(3-(4-((1-(2-fluorophenyl)-1H-1,2,3-triazol-4-yl)methyl)piperazin-1-yl)phenyl)propane-2-sulfonamide] was tested. Which pKi did it give?
A: > 7.00

Q: With `CCS(=O)(=O)Nc1cccc(N2CCN(Cc3cn(-c4ccccc4)nn3)CC2)c1` [Example 10, N-(3-(4-((1-phenyl-1H-1,2,3-triazol-4-yl)methyl)piperazin-1-yl)phenyl)ethanesulfonamide] as the compound, how does the pKi read?
A: > 6.30

Q: `CS(=O)(=O)Nc1cccc(NC2CCN(Cc3cn(-c4ccccc4)nn3)C2)c1` (stereo not shown) [Example 11, N-(3-(1-((1-phenyl-1H-1,2,3-triazol-4-yl)methyl)pyrrolidin-3-ylamino)phenyl)methanesulfonamide] was tested. Which pKi did it give?
A: > 6.30

Q: With `CS(=O)(=O)Nc1cccc(NC2CN(Cc3cn(-c4ccccc4)nn3)C2)c1` [Example 12, N-(3-(1-((1-phenyl-1H-1,2,3-triazol-4-yl)methyl)azetidin-3-ylamino)phenyl)methanesulfonamide] as the compound, how does the pKi read?
A: > 6.30

Q: How did the pKi turn out when `CS(=O)(=O)Nc1cccc(N2CC3CN(Cc4cn(-c5ccccc5)nn4)CC3C2)c1` (stereo not shown) [Example 13, N-(3-(5-((1-phenyl-1H-1,2,3-triazol-4-yl)methyl)hexahydropyrrolo[3,4-c]pyrrol-2(1H)-yl)phenyl)methanesulfonamide] was run?
A: > 6.30

Q: With `CN(c1cccc(NS(C)(=O)=O)c1)C1CCN(Cc2cn(-c3ccccc3)nn2)C1` (stereo not shown) [Example 14, N-(3-(methyl(1-((1-phenyl-1H-1,2,3-triazol-4-yl)methyl)pyrrolidin-3-yl)amino)phenyl)methanesulfonamide] as the compound, how does the pKi read?
A: > 7.00

Q: How did the pKi turn out when `CN(c1cccc(NS(C)(=O)=O)c1)C1CN(Cc2cn(-c3ccccc3)nn2)C1` [Example 15, N-(3-(methyl(1-((1-phenyl-1H-1,2,3-triazol-4-yl)methyl)azetidin-3-yl)amino)phenyl)methanesulfonamide] was run?
A: > 6.30

Q: `CC(C)S(=O)(=O)Nc1cccc(N2CCN(Cc3cn(Cc4ccccn4)nn3)CC2)c1` [Example 16, N-(3-(4-((1-(pyridin-2-ylmethyl)-1H-1,2,3-triazol-4-yl)methyl)piperazin-1-yl)phenyl)propane-2-sulfonamide] was tested. Which “μ and σ1 dual binding” value did it give?
A: ++

Q: How did the pKi turn out when `CC(C)S(=O)(=O)Nc1cccc(N2CCN(Cc3cn(-c4ccccn4)nn3)CC2)c1` [Example 17, N-(3-(4-((1-(pyridin-2-yl)-1H-1,2,3-triazol-4-yl)methyl)piperazin-1-yl)phenyl)propane-2-sulfonamide] was run?
A: > 6.30

Q: How did the pKi turn out when `O=S(=O)(Nc1cccc(N2CCN(Cc3cn(-c4ccccc4)nn3)CC2)c1)C(F)(F)F` [Example 18, 1,1,1-trifluoro-N-(3-(4-((1-phenyl-1H-1,2,3-triazol-4-yl)methyl)piperazin-1-yl)phenyl)methanesulfonamide] was run?
A: ≤ 6.30

Q: With `CC(C)S(=O)(=O)Nc1cccc(N2CCN(Cc3cn(-c4ccc(F)cn4)nn3)CC2)c1` [Example 19, N-(3-(4-((1-(5-fluoropyridin-2-yl)-1H-1,2,3-triazol-4-yl)methyl)piperazin-1-yl)phenyl)propane-2-sulfonamide] as the compound, how does the “μ and σ1 dual binding” value read?
A: ++

Q: How did the pKi turn out when `O=S(=O)(Nc1cccc(N2CCN(Cc3cn(-c4ccccc4)nn3)CC2)c1)C1CC1` [Example 20, N-(3-(4-((1-phenyl-1H-1,2,3-triazol-4-yl)methyl)piperazin-1-yl)phenyl)cyclopropanesulfonamide] was run?
A: > 7.00

Q: `CC(C)S(=O)(=O)Nc1cccc(N2CCN(Cc3cn(-c4ncccc4F)nn3)CC2)c1` [Example 21, N-(3-(4-((1-(3-fluoropyridin-2-yl)-1H-1,2,3-triazol-4-yl)methyl)piperazin-1-yl)phenyl)propane-2-sulfonamide] was tested. Which “μ and σ1 dual binding” value did it give?
A: ++

Q: With `CC(C)S(=O)(=O)Nc1cccc(N2CCN(Cc3cn(-c4cc(F)ccn4)nn3)CC2)c1` [Example 22, N-(3-(4-((1-(4-fluoropyridin-2-yl)-1H-1,2,3-triazol-4-yl)methyl)piperazin-1-yl)phenyl)propane-2-sulfonamide] as the compound, how does the “μ and σ1 dual binding” value read?
A: ++

Q: Which “μ and σ1 dual binding” value does the source give for `CS(=O)(=O)Nc1cccc(N2[C@@H]3CC[C@H]2CN(Cc2cn(-c4ccccc4)nn2)C3)c1` [Example 23, N-(3-((1R,5S)-3-((1-phenyl-1H-1,2,3-triazol-4-yl)methyl)-3,8-diazabicyclo[3.2.1]octan-8-yl)phenyl)methanesulfonamide] here?
A: ++

Q: `CC(C)S(=O)(=O)Nc1cccc(N2CCN(Cc3cnn(-c4ccccn4)n3)CC2)c1` [Example 24, N-(3-(4-((2-(pyridin-2-yl)-2H-1,2,3-triazol-4-yl)methyl)piperazin-1-yl)phenyl)propane-2-sulfonamide] was tested. Which pKi did it give?
A: ≤ 6.30

Q: `CS(=O)(=O)Nc1cccc(N2CCCN(Cc3cn(-c4ccccc4)nn3)CC2)c1` [Example 25, N-(3-(4-((1-phenyl-1H-1,2,3-triazol-4-yl)methyl)-1,4-diazepan-1-yl)phenyl)methanesulfonamide] was tested. Which pKi did it give?
A: > 6.30

Q: How did the pKi turn out when `CC(C)S(=O)(=O)Nc1cccc(N(C)C2CCN(Cc3cn(-c4ccccc4)nn3)C2)c1` (stereo not shown) [Example 26, N-(3-(methyl(1-((1-phenyl-1H-1,2,3-triazol-4-yl)methyl)pyrrolidin-3-yl)amino)phenyl)propane-2-sulfonamide] was run?
A: > 7.00

Q: How did the pKi turn out when `CC(C)S(=O)(=O)Nc1cccc(N2CCN(Cc3cn(-c4cccc(F)c4)nn3)CC2)c1` [Example 27, N-(3-(4-((1-(3-fluorophenyl)-1H-1,2,3-triazol-4-yl)methyl)piperazin-1-yl)phenyl)propane-2-sulfonamide] was run?
A: > 7.00

Q: With `CC(C)S(=O)(=O)Nc1cccc(N2CCN(Cc3cn(-c4ccc(F)cc4)nn3)CC2)c1` [Example 28, N-(3-(4-((1-(4-fluorophenyl)-1H-1,2,3-triazol-4-yl)methyl)piperazin-1-yl)phenyl)propane-2-sulfonamide] as the compound, how does the pKi read?
A: > 6.30

Q: With `CC(C)S(=O)(=O)Nc1cccc(N2CCN(Cc3cn(-c4cccc(F)n4)nn3)CC2)c1` [Example 29, N-(3-(4-((1-(6-fluoropyridin-2-yl)-1H-1,2,3-triazol-4-yl)methyl)piperazin-1-yl)phenyl)propane-2-sulfonamide] as the compound, how does the pKi read?
A: > 6.30

Q: With `CC(C)S(=O)(=O)Nc1cccc(N2CC3CN(Cc4cn(-c5ccccc5)nn4)CC3C2)c1` (stereo not shown) [Example 30, N-(3-(5-((1-phenyl-1H-1,2,3-triazol-4-yl)methyl)hexahydropyrrolo[3,4-c]pyrrol-2(1H)-yl)phenyl)propane-2-sulfonamide] as the compound, how does the pKi read?
A: > 7.00

Q: `Nc1cccc(N2CCN(Cc3cn(-c4ccccc4)nn3)CC2)c1` [Example 31, 3-(4-((1-phenyl-1H-1,2,3-triazol-4-yl)methyl)piperazin-1-yl)aniline] was tested. Which pKi did it give?
A: ≤ 6.30
